Measurements: patent US20240329043A1, “METHOD FOR STRATIFICATION AND TREATMENT OF MULTIPLE SCLEROSIS” (Universität Zurich, priority 2021, published 2024)

Key:
[1] = system: CSF-infiltrating CD4+ T cells from MS patients; details: peptide 10 μM; 105 MS patients, quadruplicates; well positive if IFN-γ≥20 pg/ml
Procedure: 6×10^4 PHA-expanded CSF-infiltrating CD4^+ T cells were seeded in quadruplicate with 2×10^5 irradiated autologous PBMCs as antigen presenting cells and stimulated with peptides (Table 2) at a final concentration of 10 μM and with a T Cell Activation Kit (anti-CD3, anti-CD28, anti-CD2 beads) (Miltenyi Biotec) as positive control.
(§1) Release of IFN-γ was measured using the ELISA MAX™ Deluxe Set Human IFN-γ (Biolegend, San Diego, CA, USA) according to the manufacturer's instructions. A well was considered positive if IFN-γ≥20 pg/ml and a patient was considered positive for a peptide if the mean IFN-γ of the four wells was ≥20 pg/ml and at least 3 of the 4 wells were positive.

[2] = system: CSF-infiltrating CD4+ T cells from MS patients; details: peptide 10 μM, 105 MS patients; for Positive wells % Proliferation: quadruplicates (420 wells per peptide), well positive if SI≥2, 72 h; for Positive patients % Proliferation: patient positive if mean SI of four wells ≥2 and at least 3 of four wells SI≥2
Procedure: CSF-infiltrating CD4+ T cells were expanded with PHA in a single round of stimulation using a previously reported protocol aimed to reduce TCR repertoire bias (Planas et al., 2008, Sci Transl Med, 10(462):eaat4301). 6×10^4 PHA-expanded CSF-infiltrating CD4^+ T cells were seeded in quadruplicate with 2×10^5 irradiated autologous PBMCs as antigen presenting cells and stimulated with peptides (Table 2) at a final concentration of 10 μM and with a T Cell Activation Kit (anti-CD3, anti-CD28, anti-CD2 beads) (Miltenyi Biotec) as positive control.
(§2) Proliferation was measured 72 h after stimulation using 3H-thymidine (Hartmann Analytic, Braunschweig, Germany) as previously reported (Planas et al., 2018). The stimulation index of single wells (SI) was calculated as follows: SI=(cpm well with peptide)/(Mean cpm wells without peptide). A well was considered positive if SI≥2.

[3] = system: CSF-infiltrating CD4+ T cells from MS patients; experiment: Reactivity of CSF-infiltrating CD4+ T cells by proliferation and/or IFN-γ release taken together (responder classification, comparison of readouts); details: of 105 MS patients; main or only reactivity in proliferation and/or IFN-γ release
Procedure: PBMCs were freshly isolated using Ficoll (Eurobio, Germany) density gradient centrifugation. CSF-infiltrating CD4+ T cells were expanded with PHA in a single round of stimulation using a previously reported protocol aimed to reduce TCR repertoire bias (Planas et al., 2008, Sci Transl Med, 10(462):eaat4301). 6×10^4 PHA-expanded CSF-infiltrating CD4^+ T cells were seeded in quadruplicate with 2×10^5 irradiated autologous PBMCs as antigen presenting cells and stimulated with peptides (Table 2) at a final concentration of 10 μM and with a T Cell Activation Kit (anti-CD3, anti-CD28, anti-CD2 beads) (Miltenyi Biotec) as positive control.
as §2, §1

| Sequence | Positive wells % IFNγ release [1] [%] | Positive wells % Proliferation [2] [%] | Positive patients % Proliferation [2] [%] | Patients classified as responders to the peptide(s) [3] [%] |
| --- | --- | --- | --- | --- |
| AQGTLSKIFKLGGRDSRSGSPMARR (listed as Homo sapiens) [MBP (146-170)] | 3.86 | 0.72 | 0.00 | – |
| EEDEVSIKEAAEAVV (listed as Homo sapiens) [GDP-L-FS (246-260)] | 8.85 | 6.90 | 4.76 | – |
| FRFTPFKQAVKETCA (listed as Homo sapiens) [GDP-L-FS (296-310)] | 12.65 | 6.43 | 4.76 | – |
| GQFRVIGPRHPIRALVGDEV (listed as Homo sapiens) [MOG (1-20)] | 4.58 | 1.20 | 0.00 | – |
| HCLGKWLGHPDKFVGI (listed as Homo sapiens) [PLP (139-154)] | 3.86 | 1.92 | 0.96 | – |
| KYLATASTMDHARHGFLPRH (listed as Homo sapiens) [MBP (13-32)] | 4.34 | 0.72 | 0.00 | – |
| LSRFSWGAEGQRPGFGYGG (listed as Homo sapiens) [MBP (111-129)] | 6.75 | 1.20 | 0.96 | – |
| MEVGWYRPPFSRVVHLYRNGK (listed as Homo sapiens) [MOG (35-55)] | 13.49 | 3.61 | 1.92 | 10.4 |
| PHNSNFGYSYAKRMI (listed as Homo sapiens) [GDP-L-FS (136-150)] | 8.35 | 7.14 | 5.71 | – |
| TAQTRALFEKVQPTH (listed as Homo sapiens) [GDP-L-FS (51-65)] | 7.16 | 5.48 | 3.80 | – |
| YGCTFTAVIPTNVFG (listed as Homo sapiens) [GDP-L-FS (161-175)] | 6.92 | 7.38 | 6.66 | – |
